From patent US12662489B2 (Sitryx Therapeutics Limited, priority 2023, dated 2026)

What was measured:
[1] = target: T1, MTHFD1 recombinant human enzyme (Homo sapiens, UniProt P11586); assay: MTHFD1 inhibition assay (NAD(P)H-Glo luminescence); settings: MTHFD1 IC50, recombinant human enzyme 200 nM, NADP, band
T1 sequence (P11586 2-291 limits assumed): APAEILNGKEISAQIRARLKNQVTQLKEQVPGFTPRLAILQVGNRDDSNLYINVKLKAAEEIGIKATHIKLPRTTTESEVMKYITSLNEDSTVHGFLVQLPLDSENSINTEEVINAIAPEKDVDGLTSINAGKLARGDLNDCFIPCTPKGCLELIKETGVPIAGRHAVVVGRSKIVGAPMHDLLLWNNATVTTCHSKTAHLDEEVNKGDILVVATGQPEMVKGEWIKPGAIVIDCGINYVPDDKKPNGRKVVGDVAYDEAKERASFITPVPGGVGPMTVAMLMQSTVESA

[2] = target: T2, MTHFD2 recombinant human enzyme (Homo sapiens, UniProt P13995); assay: MTHFD2 inhibition assay (NAD(P)H-Glo luminescence); settings: for MTHFD1/MTHFD2 IC50 ratio: selectivity of MTHFD2 inhibition over MTHFD1, band
T2 sequence (P13995 36-350): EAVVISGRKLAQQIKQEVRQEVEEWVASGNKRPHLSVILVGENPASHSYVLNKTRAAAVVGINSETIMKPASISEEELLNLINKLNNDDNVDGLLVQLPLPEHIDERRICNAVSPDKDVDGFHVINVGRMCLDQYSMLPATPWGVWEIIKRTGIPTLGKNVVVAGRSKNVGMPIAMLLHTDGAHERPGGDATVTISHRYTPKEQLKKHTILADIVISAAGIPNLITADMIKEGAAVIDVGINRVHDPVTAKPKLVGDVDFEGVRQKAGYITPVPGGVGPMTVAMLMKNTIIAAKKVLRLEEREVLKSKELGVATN

| SMILES | IC50 [1] [µM] | IC50 [2] [µM] | MTHFD1/MTHFD2 IC50 ratio [2] |
| --- | --- | --- | --- |
| COC[C@H]1CN(c2cc(Cl)c3c4c(c(=O)oc3c2C)CN(C(=O)c2ccc(C(=O)NS(=O)(=O)N3CCC[C@@H]3COC)c(OC)c2)CC4)CCN1C [Example 288, 4-(10-chloro-8-((R)-3-(methoxymethyl)-4-methylpiperazin-1-yl)-7-methyl-5-oxo-1,3,4,5-tetrahydro-2H-chromeno[3,4-c]pyridine-3-carbonyl)-2-methoxy-N-(((R)-2-(methoxymethyl)pyrrolidin-1-yl)sulfonyl)benzamide] | 1 to 5 | 0.01 to 0.1 | J (>30) |
| COC[C@H]1CN(c2ccc3c4c(c(=O)oc3c2Cl)CN(C(=O)c2ccc(C(=O)NS(=O)(=O)N(C)C)c(OC3CCC3)c2F)CC4)CCN1C [Example 52, (R)-4-(7-chloro-8-(3-(methoxymethyl)-4-methylpiperazin-1-yl)-5-oxo-1,3,4,5-tetrahydro-2H-chromeno[3,4-c]pyridine-3-carbonyl)-2-cyclobutoxy-N-(N,N-dimethylsulfamoyl)-3-fluorobenzamide] | 0.001 to 0.01 | 0.001 to 0.01 | – |
| COC[C@H]1CN(c2cc(C)c3c4c(c(=O)oc3c2C)CN(C(=O)c2cc(F)c(C(=O)NS(=O)(=O)N3CCCC3)cc2N(C)C)CC4)CCN1C [Example 243] | 1 to 5 | 0.01 to 0.1 | J (>30) |
| COC[C@H]1CN(c2ccc3c4c(c(=O)oc3c2C)CN(C(=O)c2cc(Cl)c(C(=O)NS(=O)(=O)C3(C)CC3)c(N3C5CCC3CC5)c2)CC4)CCN1C [Example 40, (R)-2-(7-azabicyclo[2.2.1]heptan-7-yl)-6-chloro-4-(8-(3-(methoxymethyl)-4-methylpiperazin-1-yl)-7-methyl-5-oxo-1,3,4,5-tetrahydro-2H-chromeno[3,4-c]pyridine-3-carbonyl)-N-((1-methylcyclopropyl)sulfonyl)benzamide] | 0.01 to 0.1 | 0.001 to 0.01 | H (>9.0 to 30) |
| Cc1c(N2CCN3CCOC[C@H]3C2)ccc2c3c(c(=O)oc12)CN(C(=O)c1ccc(C(=O)NS(=O)(=O)N2CCCC2)c(OC2CCC2)c1)CC3 [Example 19, (R)-2-cyclobutoxy-4-(8-(hexahydropyrazino[2,1-c][1,4]oxazin-8(1H)-yl)-7-methyl-5-oxo-1,3,4,5-tetrahydro-2H-chromeno[3,4-c]pyridine-3-carbonyl)-N-(pyrrolidin-1-ylsulfonyl)benzamide] | 0.1 to 1 | 0.1 to 1 | F (<3) |
| CCOc1c(C(=O)NS(=O)(=O)N2C3CCC2CC3)ccc(C(=O)N2CCc3c(c(=O)oc4c(CC)c(N5CCN(C)[C@@H](COC)C5)ccc34)C2)c1F [Example 215, (R)-N-((7-azabicyclo[2.2.1]heptan-7-yl)sulfonyl)-2-ethoxy-4-(7-ethyl-8-(3-(methoxymethyl)-4-methylpiperazin-1-yl)-5-oxo-1,3,4,5-tetrahydro-2H-chromeno[3,4-c]pyridine-3-carbonyl)-3-fluorobenzamide] | 0.01 to 0.1 | 0.1 to 1 | F (<3) |
| COC[C@H]1CN(c2cc(C)c3c4c(c(=O)oc3c2C)CN(C(=O)c2cc(N(C)C)c(C(=O)NS(=O)(=O)C3(C)CC3)cc2C(F)(F)F)CC4)CCN1C [Example 159, (R)-2-(dimethylamino)-4-(8-(3-(methoxymethyl)-4-methylpiperazin-1-yl)-7,10-dimethyl-5-oxo-1,3,4,5-tetrahydro-2H-chromeno[3,4-c]pyridine-3-carbonyl)-N-((1-methylcyclopropyl)sulfonyl)-5-(trifluoromethyl)benzamide] | > 5 | 0.1 to 1 | H (>9.0 to 30) |

Other lines, results leading:

| IC50 [1] [µM] | IC50 [2] [µM] | MTHFD1/MTHFD2 IC50 ratio [2] | SMILES |
| --- | --- | --- | --- |
| 0.1 to 1 | 0.01 to 0.1 | H (>9.0 to 30) | COC[C@H]1CN(c2ccc3c4c(c(=O)oc3c2C)CN(C(=O)c2cc(Cl)c(C(=O)NS(=O)(=O)N(C)C)c(N3CC5CC5C3)c2)CC4)CCN1C (stereo partly drawn) [Example 33, 2-(3-azabicyclo[3.1.0]hexan-3-yl)-6-chloro-N-(N,N-dimethylsulfamoyl)-4-(8-((R)-3-(methoxymethyl)-4-methylpiperazin-1-yl)-7-methyl-5-oxo-1,3,4,5-tetrahydro-2H-chromeno[3,4-c]pyridine-3-carbonyl)benzamide] |
| 0.001 to 0.01 | 0.001 to 0.01 | F (<3) | COC[C@H]1CN(c2ccc3c4c(c(=O)oc3c2C)CN(C(=O)c2cc(F)c(C(=O)NS(=O)(=O)C3(C)CC3)c(N3CC5CC5C3)c2)CC4)CCN1C (stereo partly drawn) [Example 26, 2-(3-azabicyclo[3.1.0]hexan-3-yl)-6-fluoro-4-(8-((R)-3-(methoxymethyl)-4-methylpiperazin-1-yl)-7-methyl-5-oxo-1,3,4,5-tetrahydro-2H-chromeno[3,4-c]pyridine-3-carbonyl)-N-((1-methylcyclopropyl)sulfonyl)benzamide] |
| 0.1 to 1 | 0.01 to 0.1 | – | COC[C@H]1CN(c2cc(C)c3c4c(c(=O)oc3c2C)CN(C(=O)c2cc(N(C)C)c(C(=O)NS(=O)(=O)N3CCC(C(F)(F)F)CC3)cc2F)CC4)CCN1C [Example 296, (R)-2-(dimethylamino)-5-fluoro-4-(8-(3-(methoxymethyl)-4-methylpiperazin-1-yl)-7,10-dimethyl-5-oxo-1,3,4,5-tetrahydro-2H-chromeno[3,4-c]pyridine-3-carbonyl)-N-((4-(trifluoromethyl)piperidin-1-yl)sulfonyl)benzamide] |
| 0.1 to 1 | 0.01 to 0.1 | F (<3) | CCOc1c(C(=O)NS(=O)(=O)N2CC3CCC2C3)ccc(C(=O)N2CCc3c(c(=O)oc4c(C)c(N5CCN(C)[C@@H](COC)C5)ccc34)C2)c1F (stereo partly shown) [Example 230] |
| 0.1 to 1 | 0.01 to 0.1 | H (>9.0 to 30) | COC[C@H]1CN(c2cc(Cl)c3c4c(c(=O)oc3c2C)CN(C(=O)c2cc(N(C)C)c(C(=O)NS(=O)(=O)N3CCCC5(COC5)C3)cc2F)CC4)CCN1C [Example 272, (R)-N-((2-oxa-6-azaspiro[3.5]nonan-6-yl)sulfonyl)-4-(10-chloro-8-(3-(methoxymethyl)-4-methylpiperazin-1-yl)-7-methyl-5-oxo-1,3,4,5-tetrahydro-2H-chromeno[3,4-c]pyridine-3-carbonyl)-2-(dimethylamino)-5-fluorobenzamide] |
| 0.1 to 1 | 0.1 to 1 | F (<3) | COC[C@H]1CN(c2cc(C)c3c4c(c(=O)oc3c2C)CN(C(=O)c2ccc(C(=O)NS(=O)(=O)N3CCCC3)c(N3CCC[C@H]3C)c2)CC4)CCN1C [Example 124, 4-(8-((R)-3-(methoxymethyl)-4-methylpiperazin-1-yl)-7,10-dimethyl-5-oxo-1,3,4,5-tetrahydro-2H-chromeno[3,4-c]pyridine-3-carbonyl)-2-((R)-2-methylpyrrolidin-1-yl)-N-(pyrrolidin-1-ylsulfonyl)benzamide] |
| 0.01 to 0.1 | 0.01 to 0.1 | F (<3) | COC[C@H]1CN(c2cc(C)c3c4c(c(=O)oc3c2C)CN(C(=O)c2ccc(C(=O)NS(=O)(=O)N3CCCC3)c(OC3CCC(F)(F)CC3)c2)CC4)CCN1C [Example 99, (R)-2-((4,4-difluorocyclohexyl)oxy)-4-(8-(3-(methoxymethyl)-4-methylpiperazin-1-yl)-7,10-dimethyl-5-oxo-1,3,4,5-tetrahydro-2H-chromeno[3,4-c]pyridine-3-carbonyl)-N-(pyrrolidin-1-ylsulfonyl)benzamide] |
| 0.1 to 1 | 0.01 to 0.1 | J (>30) | COC[C@H]1CN(c2cc(C)c3c4c(c(=O)oc3c2C)CN(C(=O)c2cc(N(C)C)c(C(=O)NS(=O)(=O)N3CCC[C@@H](OC)C3)cc2F)CC4)CCN1C [Example 286, 2-(dimethylamino)-5-fluoro-4-(8-((R)-3-(methoxymethyl)-4-methylpiperazin-1-yl)-7,10-dimethyl-5-oxo-1,3,4,5-tetrahydro-2H-chromeno[3,4-c]pyridine-3-carbonyl)-N-(((R)-3-methoxypiperidin-1-yl)sulfonyl)benzamide] |
| 0.001 to 0.01 | 0.001 to 0.01 | F (<3) | COC[C@H]1CN(c2ccc3c4c(c(=O)oc3c2C)CN(C(=O)c2ccc(C(=O)NS(=O)(=O)N(C)C)c(O[C@@H]3C[C@@H]5C[C@@H]5C3)c2F)CC4)CCN1C [Example 13, 2-(((1R,3r,5S)-bicyclo[3.1.0]hexan-3-yl)oxy)-N-(N,N-dimethylsulfamoyl)-3-fluoro-4-(8-((R)-3-(methoxymethyl)-4-methylpiperazin-1-yl)-7-methyl-5-oxo-1,3,4,5-tetrahydro-2H-chromeno[3,4-c]pyridine-3-carbonyl)benzamide] |
| 0.01 to 0.1 | 0.001 to 0.01 | F (<3) | COC[C@H]1CN(c2cc(C)c3c4c(c(=O)oc3c2C)CN(C(=O)c2ccc(C(=O)NS(=O)(=O)N3CCCC3)c(OC3CC3)c2F)CC4)CCN1C [Example 212, (R)-2-cyclopropoxy-3-fluoro-4-(8-(3-(methoxymethyl)-4-methylpiperazin-1-yl)-7,10-dimethyl-5-oxo-1,3,4,5-tetrahydro-2H-chromeno[3,4-c]pyridine-3-carbonyl)-N-(pyrrolidin-1-ylsulfonyl)benzamide] |
